Series [1] is described as follows: Thermogravimetric analysis (TGA). To be noted: crystalline solid; from room temperature to 150.0° C. The series is classed as physicochemical.
Series [2] can be described thus: Differential scanning calorimetry (DSC) thermal analysis. The series is classed as physicochemical. To be noted: crystalline solid; linear heating ramp of 10° C./min from 22° C. to 250° C. As for the experimental part:
Differential scanning calorimetry (DSC) was performed using a TA Instruments Model Q-100 module with a Thermal Analyst controller. Data were collected and analyzed using TA Instruments Thermal Solutions software. A 2.05 mg sample of the crystalline compound of Example 1 was accurately weighed into a covered aluminum pan. After a 5 minute isothermal equilibration period at 22° C., the sample was heated using a linear heating ramp of 10° C./min from 22° C. to 250° C.
A 1.12 mg sample of the crystalline compound of Example 2 was similarly evaluated.

`CCOc1nc(CC)c(CN)n1Cc1ccc(-c2ccccc2C(=O)OC(C)(C)C)cc1F` [Example 1, 4′-(5-aminomethyl-2-ethoxy-4-ethylimidazol-1-ylmethyl)-3′-fluorobiphenyl-2-carboxylic acid t-butyl ester]: the “loss of weight (residual moisture or solvent), TGA trace” value in series [1] is under 0.5%. The “thermal stability: no thermal decomposition below (DSC thermograph)” value in series [2] is at least 150.0 °C.
In the case of `CCOc1nc(CC)c(CNC(=O)[C@H](CC(C)C)SC(C)=O)n1Cc1ccc(-c2ccccc2C(=O)O)cc1F` [Example 2, 4′-{5-[((S)-2-acetylsulfanyl-4-methylpentanoylamino)methyl]-2-ethoxy-4-ethylimidazol-1-ylmethyl}-3′-fluorobiphenyl-2-carboxylic acid], the “thermal stability: no thermal decomposition below (DSC thermograph)” value in series [2] was at least 150.0 °C.
